Assay results from the supplement of paper PMC11061612.

Columns and labels:
NCI-H2731 (Mesothelioma) = experiment: combination Emax (second highest fraction inhibited in the dose matrix, 72 h); higher = more inhibition; extreme values may be limits of the assay
How it was run: (§1)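 Bliss excess equals the observed combination effect minus the expected value EA + EB − EA·EB, where EA and EB are the effects of each agent alone. Combination Emax is the second-highest inhibition within the matrix. Inhibition was scaled from CellTiter-Glo 2.0 luminescence, with 0 set by vehicle wells and 1 by blank wells, after 72 hours of two-drug dosing of cells plated in 1536-well plates.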

[1] = test system: RPMI-8226 (Plasma Cell Myeloma); experiment: as above
How it was run: as §1

[2] = test system: HCC1419 (Breast Carcinoma); experiment: as above
How it was run: as §1

[3] = test system: SK-GT-4 (Esophageal Adenocarcinoma); experiment: as above
How it was run: as §1

M059J (Glioblastoma) = experiment: as above
How it was run: as §1

[4] = test system: MOLM-13 (Acute Myeloid Leukemia); experiment: as above
How it was run: as §1

[5] = test system: SK-GT-2 (Gastric Carcinoma); experiment: as above
How it was run: as §1

[6] = test system: CHSA8926 (Chondrosarcoma); experiment: as above
How it was run: as §1

[7] = test system: NCI-H661 (Non-Small Cell Lung Carcinoma); experiment: as above
How it was run: as §1

[8] = test system: KYSE-270 (Esophageal Squamous Cell Carcinoma); experiment: as above
How it was run: as §1

[9] = test system: DMS-114 (Small Cell Lung Carcinoma); experiment: as above
How it was run: as §1

[10] = test system: KP-3 (Pancreatic Carcinoma); experiment: as above
How it was run: as §1

SJSA-1 (Osteosarcoma) = experiment: as above
How it was run: as §1

[11] = test system: ST486 (Burkitt's Lymphoma); experiment: as above
How it was run: as §1

[12] = test system: JHH-4 (Hepatocellular Carcinoma); experiment: as above
How it was run: as §1

[13] = test system: ESO51 (Esophageal Adenocarcinoma); experiment: as above
How it was run: as §1

[14] = test system: H9 (T-Cell Non-Hodgkin's Lymphoma); experiment: as above
How it was run: as §1

[15] = test system: HCC1187 (Breast Carcinoma); experiment: as above
How it was run: as §1

[16] = test system: IM-95 (Gastric Carcinoma); experiment: as above
How it was run: as §1

[17] = test system: SUP-B15 (B-Lymphoblastic Leukemia); experiment: Bliss excess, mean over the matrix (fraction); higher = more synergy
How it was run: as §1

Row | SMILES | combination Emax (NCI-H2731 (Mesothelioma)) | combination Emax [1] | combination Emax [2] | combination Emax [3] | combination Emax (M059J (Glioblastoma)) | combination Emax [4] | combination Emax [5] | combination Emax [6] | combination Emax [7] | combination Emax [8] | combination Emax [9] | combination Emax [10] | combination Emax (SJSA-1 (Osteosarcoma)) | combination Emax [11] | combination Emax [12] | combination Emax [13] | combination Emax [14] | combination Emax [15] | combination Emax [16] | Bliss excess [17]
1 | CC1(C)CCC(CN2CCN(c3ccc(C(=O)NS(=O)(=O)c4ccc(NCC5CCOCC5)c([N+](=O)[O-])c4)c(Oc4cnc5[nH]ccc5c4)c3)CC2)=C(c2ccc(Cl)cc2)C1 [Venetoclax] + Cn1cnc2c(F)c(Nc3ccc(Br)cc3Cl)c(C(=O)NOCCO)cc21 [Selumetinib] (first compound max 1 µM, 7x7, partner max 3 µM) | 0.0907 | 0.325 | 0.201 | 0.473 | 0.203 | 1 | 0.0541 | 0.148 | 0.0912 | 0.554 | 0.0989 | 0.135 | 0.325 | 0.754 | 0.188 | 0.384 | 0.931 | 0.129 | 0.179 | 0.108
2 | Cn1cnc2c(F)c(Nc3ccc(Br)cc3Cl)c(C(=O)NOCCO)cc21 [Selumetinib] + CC(C)n1c(=O)n(C)c2cnc3cc(F)c(-c4ccc(OCCCN5CCCCC5)nc4)cc3c21 [AZD1390] (first compound max 10 µM, 7x7, partner max 0.3 µM) | 0.0731 | 0.26 | 0.152 | 0.516 | 0.107 | 0.767 | 0.113 | 0.185 | 0.0857 | 0.25 | 0.199 | 0.15 | 0.307 | 0.455 | 0.605 | 0.434 | 0.978 | 0.179 | 0.222 | -0.0281
3 | COc1cccc(OCCCN)c1-c1cc(Nc2cnc(C#N)cn2)n[nH]1 [Prexasertib] + O=C(c1cc(Cc2n[nH]c(=O)c3ccccc23)ccc1F)N1CCN(C(=O)C2CC2)CC1 [Olaparib] (first compound max 1 µM, 7x7, partner max 10 µM) | 0.387 | 0.999 | 0.266 | 0.593 | 0.779 | 1 | 0.834 | 0.398 | 0.797 | 0.964 | 0.412 | 0.469 | 0.639 | 0.973 | 0.532 | 0.555 | 1 | 0.614 | 0.253 | -0.0191
4 | COc1cccc(OCCCN)c1-c1cc(Nc2cnc(C#N)cn2)n[nH]1 [Prexasertib] + Cc1cc2ncnn2cc1Nc1ncc2c(n1)n(C1CCOCC1)c(=O)n2C [AZD7648] (first compound max 1 µM, 7x7, partner max 10 µM) | 0.385 | 0.995 | 0.288 | 0.735 | 0.693 | 1 | 0.833 | 0.416 | 0.75 | 1 | 0.477 | 0.465 | 0.656 | 0.996 | 0.62 | 0.777 | 1 | 0.614 | 0.36 | -0.0406
5 | CN(C)CCCOc1ccc(-c2ccc3ncc4c(c3c2)n(C2CCOCC2)c(=O)n4C)cn1 [AZD0156] + O=C(c1cc(Cc2n[nH]c(=O)c3ccccc23)ccc1F)N1CCN(C(=O)C2CC2)CC1 [Olaparib] (first compound max 3 µM, partner max 3 µM) | 0.201 | 0.421 | 0.187 | 0.37 | 0.318 | 0.563 | 0.273 | 0.467 | 0.217 | 0.343 | 0.414 | 0.0919 | 0.331 | 0.621 | 0.22 | 0.348 | 0.445 | 0.197 | 0.151 | -0.0159
6 | CN(CCO)CC[C@H](CSc1ccccc1)Nc1ccc(S(=O)(=O)NC(=O)c2ccc(N3CCC([C@@H](O)c4ccccc4-c4ccc(Cl)cc4)CC3)cc2)cc1S(=O)(=O)C(F)(F)F [AZD4320] + C=CCn1c(=O)c2cnc(Nc3ccc(N4CCN(C)CC4)cc3)nc2n1-c1cccc(C(C)(C)O)n1 [AZD1775] (first compound max 1 µM, partner max 1 µM) | 0.328 | 0.997 | 0.0041 | 0.349 | 0.783 | 1 | 0.983 | 0.852 | 0.613 | 0.632 | 0.373 | 0.314 | 0.392 | 1 | 0.688 | 0.775 | 1 | 0.549 | 0.791 | 0.0733
7 | C[C@@H](c1ccc2nccn2c1)n1nnc2ncc(-c3cnn(C)c3)nc21 [Savolitinib] + CC1(C)CCC(CN2CCN(c3ccc(C(=O)NS(=O)(=O)c4ccc(NCC5CCOCC5)c([N+](=O)[O-])c4)c(Oc4cnc5[nH]ccc5c4)c3)CC2)=C(c2ccc(Cl)cc2)C1 [Venetoclax] (first compound max 1 µM, 7x7, partner max 1 µM) | 0.144 | 0.106 | 0.268 | 0.101 | 0.182 | 0.923 | 0.139 | 0.29 | 0.115 | 0.15 | 0.299 | 0.131 | 0.109 | 0.118 | 0.539 | 0.877 | 0.155 | 0.0587 | 0.333 | -0.0465
8 | COc1nnc2ccc(N3CCC(c4ccc(OCCN5CCN(C)C(=O)[C@H]5C)cc4)CC3)nn12 [AZD5153] + Cc1c2c(nn1C)CSCc1cc(n(C)n1)CSc1cc(c3ccccc3c1)OCCCc1c(C(=O)O)n(C)c3c-2c(Cl)ccc13 [AZD5991] (first compound max 1 µM, 7x7, partner max 1 µM) | 0.528 | 1 | 0.567 | 0.53 | 0.864 | 1 | 0.319 | 0.651 | 0.891 | 0.942 | 1 | 0.275 | 0.553 | 0.978 | 0.379 | 0.708 | 1 | 1 | 0.798 | 0.0356
9 | CCc1c2c(nc3ccc(O)cc13)-c1cc3c(c(=O)n1C2)COC(=O)[C@]3(O)CC [SN-38] + CN(C)CCCOc1ccc(-c2ccc3ncc4c(c3c2)n(C2CCOCC2)c(=O)n4C)cn1 [AZD0156] (first compound max 0.3 µM, 7x7, partner max 1 µM) | 0.406 | 0.77 | 0.444 | 0.258 | 0.978 | 1 | 0.444 | 0.319 | 0.463 | 0.946 | 0.514 | 0.0449 | 0.673 | 0.733 | 0.905 | 0.586 | 1 | 0.336 | 0.499 | -0.0408
10 | CC1(C)CCC(CN2CCN(c3ccc(C(=O)NS(=O)(=O)c4ccc(NCC5CCOCC5)c([N+](=O)[O-])c4)c(Oc4cnc5[nH]ccc5c4)c3)CC2)=C(c2ccc(Cl)cc2)C1 [Venetoclax] + C=CCn1c(=O)c2cnc(Nc3ccc(N4CCN(C)CC4)cc3)nc2n1-c1cccc(C(C)(C)O)n1 [AZD1775] (first compound max 1 µM, partner max 1 µM) | 0.286 | 0.538 | 0.254 | 0.715 | 0.713 | 1 | 0.597 | 0.57 | 0.63 | 0.946 | 0.437 | 0.307 | 0.453 | 0.978 | 0.343 | 0.647 | 0.966 | 0.442 | 0.299 | 0.0509
11 | CC1(C)CCC(CN2CCN(c3ccc(C(=O)NS(=O)(=O)c4ccc(NCC5CCOCC5)c([N+](=O)[O-])c4)c(Oc4cnc5[nH]ccc5c4)c3)CC2)=C(c2ccc(Cl)cc2)C1 [Venetoclax] + C[C@@H]1COCCN1C2=NC(=NC(=C2)C3(CC3)[S@](=N)(=O)C)C4=C5C=CNC5=NC=C4 [AZD6738] (first compound max 1 µM, 7x7, partner max 10 µM) | 0.307 | 0.962 | 0.343 | 0.589 | 0.526 | 1 | 0.331 | 0.469 | 0.654 | 0.869 | 0.564 | 0.323 | 0.478 | 0.861 | 0.254 | 0.82 | 1 | 0.501 | 0.169 | 0.0383
12 | COc1nnc2ccc(N3CCC(c4ccc(OCCN5CCN(C)C(=O)[C@H]5C)cc4)CC3)nn12 [AZD5153] + CCN(CCO)CCCOc1ccc2c(Nc3cc(CC(=O)Nc4cccc(F)c4)[nH]n3)ncnc2c1 [AZD2811] (first compound max 1 µM, 7x7, partner max 1 µM) | 0.489 | 0.8 | 0.355 | 0.538 | 0.751 | 1 | 0.302 | 0.537 | 0.375 | 0.439 | 0.637 | 0.281 | 0.64 | 0.936 | 0.367 | 0.639 | 1 | 0.912 | 0.336 | -0.028
